The assay concerns the target human dUTPase (Homo sapiens (Human), UniProt P33316). Briefly: Human dUTPase inhibitory effect: production of [5-3H]dUMP from [5-3H]dUTP, measured by HPLC with flow scintillation. It counts as biochemical. The settings on record: [5-3H]dUMP production from [5-3H]dUTP, 37° C., 15 minutes. Put shortly:
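E. coli-expressed purified human dUTPase reacted with 1 μM dUTP stock containing [5-3H]dUTP in Tris pH 7.4, MgCl2, 2-mercaptoethanol and albumin, 15 min at 37° C; stopped by 1 min at 100° C. [5-3H]dUMP formed was separated by reversed-phase ion-pair HPLC and quantified by flow scintillation versus water control.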

Structures are written as SMILES. pIC50: −log10 of the molar value.

The term pIC50 denotes −log10 of the IC50, conventionally taken in molar units. Higher therefore signals a low IC50.

Chain of human dUTPase (P33316 94-252): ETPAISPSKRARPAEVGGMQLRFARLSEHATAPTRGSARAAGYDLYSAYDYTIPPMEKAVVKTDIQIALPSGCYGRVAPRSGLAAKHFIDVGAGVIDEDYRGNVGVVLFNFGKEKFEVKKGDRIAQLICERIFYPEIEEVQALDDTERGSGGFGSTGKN

As to `CC(C)(CCCOCn1ccc(=O)[nH]c1=O)NS(=O)(=O)c1cccc(Br)c1` [Example 141, 3-bromo-N-(5-((2,4-dioxo-3,4-dihydropyrimidin-1(2H)-yl)methoxy)-2-methylpentan-2-yl)benzenesulfonamide], the pIC50 is 5.36.
Regarding `CC(C)(CCCOCn1ccc(=O)[nH]c1=O)NS(=O)(=O)c1ccccc1Cl` [Example 142, 2-chloro-N-(5-((2,4-dioxo-3,4-dihydropyrimidin-1(2H)-yl)methoxy)-2-methylpentan-2-yl)benzenesulfonamide], the pIC50 is 5.12. Against the preceding molecule, the pIC50 is 0.24 log units lower.
Next, `CC(C)(CCCOCn1ccc(=O)[nH]c1=O)NS(=O)(=O)c1cccc(OC(F)F)c1` [Example 145, 3-(difluoromethoxy)-N-(5-((2,4-dioxo-3,4-dihydropyrimidin-1(2H)-yl)methoxy)-2-methylpentan-2-yl)benzenesulfonamide]: 5.20; `CC(C)(CCCOCn1ccc(=O)[nH]c1=O)NS(=O)(=O)c1cccc(OC(=O)c2ccccc2)c1` [Example 146, 3-(N-(5-((2,4-dioxo-3,4-dihydropyrimidin-1(2H)-yl)methoxy)-2-methylpentan-2-yl)sulfamoyl)phenylbenzoate]: 5.06; `CN(C)c1cccc2c(S(=O)(=O)NC(C)(C)CCCOCn3ccc(=O)[nH]c3=O)cccc12` [Example 147, 5-(dimethylamino)-N-(5-((2,4-dioxo-3,4-dihydropyrimidin-1(2H)-yl)methoxy)-2-methylpentan-2-yl)naphthalene-1-sulfonamide]: 5.02.
As to `CC(C)(CCCOCn1ccc(=O)[nH]c1=O)NS(=O)(=O)c1cccc(Cl)c1` [Example 148, 3-chloro-N-(5-((2,4-dioxo-3,4-dihydropyrimidin-1(2H)-yl)methoxy)-2-methylpentan-2-yl)benzenesulfonamide], the pIC50 was 5.56.
Molecule `CC(C)(CCCOCn1ccc(=O)[nH]c1=O)NS(=O)(=O)c1cc(Br)c(Br)s1` [Example 149, 4,5-dibromo-N-(5-((2,4-dioxo-3,4-dihydropyrimidin-1(2H)-yl)methoxy)-2-methylpentan-2-yl)thiophene-2-sulfonamide] gave a pIC50 of 5.12.
The molecule `CC(C)(CCCOCn1ccc(=O)[nH]c1=O)NS(=O)(=O)c1cccc(F)c1` [Example 150, N-(5-((2,4-dioxo-3,4-dihydropyrimidin-1(2H)-yl)methoxy)-2-methylpentan-2-yl)-3-fluorobenzenesulfonamide] showed a pIC50 of 5.25.
The result for `Cc1ccccc1S(=O)(=O)NC(C)(C)CCCOCn1ccc(=O)[nH]c1=O` [Example 151, N-(5-((2,4-dioxo-3,4-dihydropyrimidin-1(2H)-yl)methoxy)-2-methylpentan-2-yl)-2-methylbenzenesulfonamide] reads 5.24; that for `Cc1cccc(S(=O)(=O)NC(C)(C)CCCOCn2ccc(=O)[nH]c2=O)c1` [Example 154, N-(5-((2,4-dioxo-3,4-dihydropyrimidin-1(2H)-yl)methoxy)-2-methylpentan-2-yl)-3-methylbenzenesulfonamide], 5.05.
Next, `CC(C)(CCCOCn1ccc(=O)[nH]c1=O)NS(=O)(=O)c1ccccc1Br` [Example 156, 2-bromo-N-(5-((2,4-dioxo-3,4-dihydropyrimidin-1(2H)-yl)methoxy)-2-methylpentan-2-yl)benzenesulfonamide]: 5.05; `CC(C)(CCCOCn1ccc(=O)[nH]c1=O)NS(=O)(=O)c1ccccc1` [Example 158, N-(5-((2,4-dioxo-3,4-dihydropyrimidin-1(2H)-yl)methoxy)-2-methylpentan-2-yl)benzenesulfonamide]: 5.02.
The result for `CC(C)(CCCOCn1ccc(=O)[nH]c1=O)NS(=O)(=O)c1cccc(OCC2CC2)c1` [Example 159, 3-(cyclopropylmethoxy)-N-(5-((2,4-dioxo-3,4-dihydropyrimidin-1(2H)-yl)methoxy)-2-methylpentan-2-yl)benzenesulfonamide] reads 6.59.
Molecule `CC(C)(CCCOCn1ccc(=O)[nH]c1=O)NS(=O)(=O)c1cccc(OCC(F)F)c1` [Example 160, 3-(2,2-difluoroethoxy)-N-(5-((2,4-dioxo-3,4-dihydropyrimidin-1(2H)-yl)methoxy)-2-methylpentan-2-yl)benzenesulfonamide] gave a pIC50 of 6.85.
Next, `CC(C)(CCCOCn1ccc(=O)[nH]c1=O)NS(=O)(=O)c1cccc(OC2CCCC2)c1` [Example 161, 3-(cyclopentyloxy)-N-(5-((2,4-dioxo-3,4-dihydropyrimidin-1(2H)-yl)methoxy)-2-methylpentan-2-yl)benzenesulfonamide]: 6.62.
The result for `C/C=C\c1cccc(S(=O)(=O)NC(C)(C)CCCOCn2ccc(=O)[nH]c2=O)c1` [Example 162, (Z)—N-(5-((2,4-dioxo-3,4-dihydropyrimidin-1(2H)-yl)methoxy)-2-methylpentan-2-yl)-3-(prop-1-enyl)benzenesulfonamide] reads 5.40.
With `O=c1ccn(COCCCC2(NS(=O)(=O)c3ccccc3)CC2)c(=O)[nH]1` [Example 164, N-(1-(3-((2,4-dioxo-3,4-dihydropyrimidin-1(2H)-yl)methoxy)propyl)cyclopropyl)benzenesulfonamide], the pIC50 is 5.22. This pIC50 and that of the molecule before are within 0.2 log units of each other.
The result for `COc1cccc(S(=O)(=O)NC2(CCCOCn3ccc(=O)[nH]c3=O)CC2)c1` [Example 165, N-(1-(3-((2,4-dioxo-3,4-dihydropyrimidin-1(2H)-yl)methoxy)propyl)cyclopropyl)-3-methoxybenzenesulfonamide] reads 5.73; that for `O=c1ccn(COCCCCNS(=O)(=O)c2cccc(OCC3CC3)c2)c(=O)[nH]1` [Example 166, 3-(cyclopropylmethoxy)-N-(4-((2,4-dioxo-3,4-dihydropyrimidin-1(2H)-yl)methoxy)butyl)benzenesulfonamide], 6.19.
Molecule `O=c1ccn(COCCCC2(NS(=O)(=O)c3cccc(OCC4CC4)c3)CC2)c(=O)[nH]1` [Example 167, 3-(cyclopropylmethoxy)-N-(1-(3-((2,4-dioxo-3,4-dihydropyrimidin-1(2H)-yl)methoxy)propyl)cyclopropyl)benzenesulfonamide] had a pIC50 of 6.89.
In the case of `CC(C)(NS(=O)(=O)c1ccccc1)c1ccc(Cn2ccc(=O)[nH]c2=O)cc1` [Example 176, N-(2-(4-((2,4-dioxo-3,4-dihydropyrimidin-1(2H)-yl)methyl)phenyl)propan-2-yl)benzenesulfonamide], the pIC50 was 5.57.
Next, `COc1cccc(S(=O)(=O)NC(C)(C)c2ccc(Cn3ccc(=O)[nH]c3=O)cc2)c1` [Example 177, N-(2-(4-((2,4-dioxo-3,4-dihydropyrimidin-1(2H)-yl)methyl)phenyl)propan-2-yl)-3-methoxybenzenesulfonamide]: 5.59; `CC(C)(NS(=O)(=O)c1cccc(OCC2CC2)c1)c1ccc(Cn2ccc(=O)[nH]c2=O)cc1` [Example 178, 3-(cyclopropanemethoxy)-N-(2-(4-((2,4-dioxo-3,4-dihydropyrimidin-1(2H)-yl)methyl)phenyl)propan-2-yl)benzenesulfonamide]: 6.62; `CC(C)(NS(=O)(=O)c1cccc(OCC2CC2)c1)c1ccc(Cn2ccc(=O)[nH]c2=O)nc1` [Example 179, 3-(cyclopropanemethoxy)-N-(2-(6-((2,4-dioxo-3,4-dihydropyrimidin-1(2H)-yl)methyl)pyridin-3-yl)propan-2-yl)benzenesulfonamide]: 6.96.
